Results from patent US20120122860A1, “SOLID FORMS OF SULFONAMIDES AND AMINO ACIDS” (Plexxikon, Inc., priority 2009, published 2012).

Tests used:
Src = Src (Homo sapiens, UniProt P12931); assay: Kinase activity assay, Src
Fms = Fms (Homo sapiens, UniProt P07333); assay: Kinase activity assay, Fms
Kit = Kit (Homo sapiens, UniProt P10721); assay: Kinase activity assay, Kit
B-Raf V600E = B-Raf V600E (Homo sapiens, UniProt P15056, V600E); assay: Kinase activity assay, B-Raf V600E; assay type: biochemical; details: read-out: activity toward kinase B-Raf V600E, IC50
Kdr = Kdr (Homo sapiens, UniProt P35968); assay: Kinase activity assay, Kdr
B-Raf = B-Raf (Homo sapiens, UniProt P15056); assay: Kinase activity assay, B-Raf; assay type: biochemical; details: read-out: activity toward kinase B-Raf, IC50
C-Raf = C-Raf (Homo sapiens, UniProt P04049); assay: Kinase activity assay, C-Raf

Measured: IC50

Chain of Kdr (P35968 20-1356): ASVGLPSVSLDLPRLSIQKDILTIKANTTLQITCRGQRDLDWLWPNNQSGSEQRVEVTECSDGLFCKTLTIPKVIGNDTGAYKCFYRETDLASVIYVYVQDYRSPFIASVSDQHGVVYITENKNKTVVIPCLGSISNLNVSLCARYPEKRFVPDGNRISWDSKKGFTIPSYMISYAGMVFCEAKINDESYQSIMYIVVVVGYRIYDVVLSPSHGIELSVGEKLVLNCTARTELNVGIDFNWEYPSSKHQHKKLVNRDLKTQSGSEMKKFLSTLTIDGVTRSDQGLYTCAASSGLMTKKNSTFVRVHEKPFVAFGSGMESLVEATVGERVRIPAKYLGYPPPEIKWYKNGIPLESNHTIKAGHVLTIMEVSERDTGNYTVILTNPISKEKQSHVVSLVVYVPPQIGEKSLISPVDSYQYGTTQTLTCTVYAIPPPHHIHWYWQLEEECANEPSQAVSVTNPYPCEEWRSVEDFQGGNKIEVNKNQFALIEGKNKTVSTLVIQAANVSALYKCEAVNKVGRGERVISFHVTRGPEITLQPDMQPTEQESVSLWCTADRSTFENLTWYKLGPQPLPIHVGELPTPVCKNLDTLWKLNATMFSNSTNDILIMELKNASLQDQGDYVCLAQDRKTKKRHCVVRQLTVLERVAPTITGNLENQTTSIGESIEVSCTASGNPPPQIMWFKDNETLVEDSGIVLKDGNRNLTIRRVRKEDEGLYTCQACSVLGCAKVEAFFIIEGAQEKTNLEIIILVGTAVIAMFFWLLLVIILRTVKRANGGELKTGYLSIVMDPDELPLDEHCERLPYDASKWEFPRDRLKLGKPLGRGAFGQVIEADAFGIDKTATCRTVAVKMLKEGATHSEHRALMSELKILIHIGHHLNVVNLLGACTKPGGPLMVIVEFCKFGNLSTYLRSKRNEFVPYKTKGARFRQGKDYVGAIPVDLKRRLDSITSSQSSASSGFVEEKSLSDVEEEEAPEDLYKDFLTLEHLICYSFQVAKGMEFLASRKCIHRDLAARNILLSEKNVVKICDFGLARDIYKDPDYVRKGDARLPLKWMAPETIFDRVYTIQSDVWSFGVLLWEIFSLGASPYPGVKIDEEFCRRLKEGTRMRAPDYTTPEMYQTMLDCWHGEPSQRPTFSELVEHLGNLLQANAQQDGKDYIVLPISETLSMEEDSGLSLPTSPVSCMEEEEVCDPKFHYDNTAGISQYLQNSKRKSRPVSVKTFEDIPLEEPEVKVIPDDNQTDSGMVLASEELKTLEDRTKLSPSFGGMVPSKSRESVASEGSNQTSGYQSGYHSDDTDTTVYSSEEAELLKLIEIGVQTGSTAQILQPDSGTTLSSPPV
Chain of B-Raf (P15056 whole entry): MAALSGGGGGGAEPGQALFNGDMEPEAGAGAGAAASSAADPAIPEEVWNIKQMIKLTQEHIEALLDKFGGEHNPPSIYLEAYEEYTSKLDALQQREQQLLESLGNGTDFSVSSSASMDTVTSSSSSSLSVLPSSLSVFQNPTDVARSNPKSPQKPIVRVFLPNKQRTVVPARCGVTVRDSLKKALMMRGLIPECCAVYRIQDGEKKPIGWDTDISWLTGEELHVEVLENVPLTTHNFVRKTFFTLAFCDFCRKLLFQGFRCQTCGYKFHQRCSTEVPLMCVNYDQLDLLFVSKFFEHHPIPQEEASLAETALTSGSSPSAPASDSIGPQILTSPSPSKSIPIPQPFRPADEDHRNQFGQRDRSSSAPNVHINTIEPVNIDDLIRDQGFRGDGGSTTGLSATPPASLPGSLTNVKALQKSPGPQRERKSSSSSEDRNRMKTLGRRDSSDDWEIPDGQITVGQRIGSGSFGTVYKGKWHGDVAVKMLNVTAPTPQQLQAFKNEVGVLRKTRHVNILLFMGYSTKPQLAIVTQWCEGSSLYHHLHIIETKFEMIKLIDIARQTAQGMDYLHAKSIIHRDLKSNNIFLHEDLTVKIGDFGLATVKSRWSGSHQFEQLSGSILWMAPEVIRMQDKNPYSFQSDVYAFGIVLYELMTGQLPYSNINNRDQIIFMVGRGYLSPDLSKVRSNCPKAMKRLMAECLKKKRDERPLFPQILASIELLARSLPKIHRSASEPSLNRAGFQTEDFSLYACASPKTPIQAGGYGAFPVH
Chain of Src (P12931 whole entry): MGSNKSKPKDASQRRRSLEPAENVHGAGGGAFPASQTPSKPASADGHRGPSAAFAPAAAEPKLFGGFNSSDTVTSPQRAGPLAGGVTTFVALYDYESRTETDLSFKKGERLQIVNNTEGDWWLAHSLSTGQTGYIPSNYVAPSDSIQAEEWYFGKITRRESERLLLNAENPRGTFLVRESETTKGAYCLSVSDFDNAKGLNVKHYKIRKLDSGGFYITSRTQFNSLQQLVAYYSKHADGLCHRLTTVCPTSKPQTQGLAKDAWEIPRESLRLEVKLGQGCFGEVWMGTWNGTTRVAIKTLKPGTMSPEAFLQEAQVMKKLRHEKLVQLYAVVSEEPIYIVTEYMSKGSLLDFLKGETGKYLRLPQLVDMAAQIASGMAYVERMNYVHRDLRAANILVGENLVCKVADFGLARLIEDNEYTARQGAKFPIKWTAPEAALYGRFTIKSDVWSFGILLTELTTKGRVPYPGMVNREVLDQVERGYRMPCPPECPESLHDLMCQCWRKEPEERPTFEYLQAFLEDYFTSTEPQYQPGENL
Chain of B-Raf V600E (P15056 whole entry V600E): as the sequence (P15056 whole entry) above, with V600E counted along it
Chain of Fms (P07333 20-972): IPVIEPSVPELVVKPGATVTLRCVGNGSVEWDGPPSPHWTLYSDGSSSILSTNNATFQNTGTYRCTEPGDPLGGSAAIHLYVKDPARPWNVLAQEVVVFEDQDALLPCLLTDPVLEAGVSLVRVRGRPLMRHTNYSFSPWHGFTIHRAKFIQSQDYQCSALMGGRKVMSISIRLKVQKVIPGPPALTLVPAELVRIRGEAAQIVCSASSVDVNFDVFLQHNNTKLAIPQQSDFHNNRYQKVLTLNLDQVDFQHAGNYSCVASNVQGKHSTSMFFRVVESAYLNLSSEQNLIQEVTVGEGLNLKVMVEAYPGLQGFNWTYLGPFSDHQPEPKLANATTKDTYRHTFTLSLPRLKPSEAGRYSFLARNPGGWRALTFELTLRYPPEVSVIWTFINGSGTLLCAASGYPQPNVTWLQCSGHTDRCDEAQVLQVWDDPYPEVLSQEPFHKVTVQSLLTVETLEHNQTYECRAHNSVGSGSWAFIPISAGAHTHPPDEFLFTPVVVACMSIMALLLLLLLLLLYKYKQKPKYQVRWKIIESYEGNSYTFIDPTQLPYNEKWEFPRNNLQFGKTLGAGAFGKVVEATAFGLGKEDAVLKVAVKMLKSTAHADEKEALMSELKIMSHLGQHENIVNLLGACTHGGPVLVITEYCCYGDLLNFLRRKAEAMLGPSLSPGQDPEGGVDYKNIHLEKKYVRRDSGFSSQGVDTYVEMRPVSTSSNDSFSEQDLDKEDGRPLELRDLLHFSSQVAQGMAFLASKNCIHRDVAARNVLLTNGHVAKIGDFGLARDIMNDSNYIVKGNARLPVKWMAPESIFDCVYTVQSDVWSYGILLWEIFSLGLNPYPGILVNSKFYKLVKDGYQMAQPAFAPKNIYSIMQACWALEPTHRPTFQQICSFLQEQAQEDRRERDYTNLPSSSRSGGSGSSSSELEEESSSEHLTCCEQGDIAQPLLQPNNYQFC
Chain of Kit (P10721 26-976): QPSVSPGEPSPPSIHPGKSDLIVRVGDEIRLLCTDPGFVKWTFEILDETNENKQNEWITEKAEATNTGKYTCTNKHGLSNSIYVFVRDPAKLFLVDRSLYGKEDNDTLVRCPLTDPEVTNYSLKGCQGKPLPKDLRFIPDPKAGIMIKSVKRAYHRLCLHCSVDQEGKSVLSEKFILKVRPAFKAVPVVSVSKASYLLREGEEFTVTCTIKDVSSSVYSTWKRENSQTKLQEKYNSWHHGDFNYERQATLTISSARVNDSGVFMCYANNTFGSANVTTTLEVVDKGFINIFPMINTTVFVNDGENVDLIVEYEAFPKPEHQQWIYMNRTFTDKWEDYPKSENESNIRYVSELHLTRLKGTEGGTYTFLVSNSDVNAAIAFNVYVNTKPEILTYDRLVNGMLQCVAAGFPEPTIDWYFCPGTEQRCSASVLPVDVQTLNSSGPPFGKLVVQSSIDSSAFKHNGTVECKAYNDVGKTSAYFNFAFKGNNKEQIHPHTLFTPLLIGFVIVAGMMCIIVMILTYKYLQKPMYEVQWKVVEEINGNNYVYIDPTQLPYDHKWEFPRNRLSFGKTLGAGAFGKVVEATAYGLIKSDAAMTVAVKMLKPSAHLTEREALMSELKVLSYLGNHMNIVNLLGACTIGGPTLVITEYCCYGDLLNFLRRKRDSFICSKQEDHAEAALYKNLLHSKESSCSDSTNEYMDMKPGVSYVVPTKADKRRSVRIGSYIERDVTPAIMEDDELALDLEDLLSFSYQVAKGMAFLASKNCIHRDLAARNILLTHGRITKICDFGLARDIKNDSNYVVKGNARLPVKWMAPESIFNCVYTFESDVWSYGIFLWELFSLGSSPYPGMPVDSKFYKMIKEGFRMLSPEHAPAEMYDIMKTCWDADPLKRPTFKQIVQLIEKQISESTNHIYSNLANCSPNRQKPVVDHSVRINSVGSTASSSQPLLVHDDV

CC(C)CS(=O)(=O)Nc1ccc(F)c(C(=O)c2c[nH]c3ncc(Br)cc23)c1F [P-2296, 2-Methyl-propane-1-sulfonic acid [3-(5-bromo-1H-pyrrolo[2,3-b]pyridine-3-carbonyl)-2,4-difluoro-phenyl]-amide]
not listed: B-Raf | C-Raf
≤ 10 µM: all other assays above

CCCS(=O)(=O)Nc1ccc(F)c(C(=O)c2c[nH]c3ncc(-c4ccc(C(=O)NC)nc4)cc23)c1F [P-2180, 5-{3-[2,6-Difluoro-3-(propane-1-sulfonylamino)-benzoyl]-1H-pyrrolo[2,3-b]pyridin-5-yl}-pyridine-2-carboxylic acid methylamide]
not listed: C-Raf
≤ 10 µM: all other assays above

CCCS(=O)(=O)Nc1ccc(F)c(C(=O)c2c[nH]c3ncc(-c4ccc(C(=O)NC5CC5)nc4)cc23)c1F [P-2181, 5-{3-[2,6-Difluoro-3-(propane-1-sulfonylamino)-benzoyl]-1H-pyrrolo[2,3-b]pyridin-5-yl}-pyridine-2-carboxylic acid cyclopropylamide]
not listed: C-Raf
≤ 10 µM: all other assays above

CCCS(=O)(=O)Nc1ccc(F)c(C(=O)c2c[nH]c3ncc(-c4ccc(C)nc4F)cc23)c1F [P-2172, Propane-1-sulfonic acid {2,4-difluoro-3-[5-(2-fluoro-6-methyl-pyridin-3-yl)-1H-pyrrolo[2,3-b]pyridine-3-carbonyl]-phenyl}-amide]
not listed: C-Raf
≤ 10 µM: all other assays above

CCS(=O)(=O)Nc1ccc(F)c(C(=O)c2c[nH]c3ncc(Br)cc23)c1F [P-2268, Ethanesulfonic acid [3-(5-bromo-1H-pyrrolo[2,3-b]pyridine-3-carbonyl)-2,4-difluoro-phenyl]-amide]
not listed: C-Raf
≤ 10 µM: all other assays above

CCCS(=O)(=O)Nc1ccc(F)c(C(=O)c2c[nH]c3ncc(-c4cccnc4F)cc23)c1F [P-2164, Propane-1-sulfonic acid {2,4-difluoro-3-[5-(2-fluoro-pyridin-3-yl)-1H-pyrrolo[2,3-b]pyridine-3-carbonyl]-phenyl}-amide]
not listed: B-Raf | C-Raf
≤ 10 µM: all other assays above

Cc1oncc1S(=O)(=O)Nc1cccc(C(=O)c2c[nH]c3ncc(C#N)cc23)c1F [P-2088, 5-Methyl-isoxazole-4-sulfonic acid [3-(5-cyano-1H-pyrrolo[2,3-b]pyridine-3-carbonyl)-2-fluoro-phenyl]-amide]
not listed: Src | B-Raf
≤ 10 µM: all other assays above

CCCS(=O)(=O)Nc1ccc(F)c(C(=O)c2c[nH]c3ncc(-c4ccnn4C)cc23)c1F [P-2175, Propane-1-sulfonic acid {2,4-difluoro-3-[5-(2-methyl-2H-pyrazol-3-yl)-1H-pyrrolo[2,3-b]pyridine-3-carbonyl]-phenyl}-amide]
not listed: C-Raf
≤ 10 µM: all other assays above

CCCS(=O)(=O)Nc1ccc(F)c(C(=O)c2c[nH]c3ncc(-c4ccc(SC)nc4)cc23)c1F [P-2187]
not listed: C-Raf
≤ 10 µM: all other assays above

O=C(c1c(F)ccc(NS(=O)(=O)CC(F)(F)F)c1F)c1c[nH]c2ncc(Br)cc12 [P-2334, 2,2,2-Trifluoro-ethanesulfonic acid [3-(5-bromo-1H-pyrrolo[2,3-b]pyridine-3-carbonyl)-2,4-difluoro-phenyl]-amide]
not listed: C-Raf
≤ 10 µM: all other assays above

CCCS(=O)(=O)Nc1ccc(F)c(C(=O)c2c[nH]c3ncc(-c4nccn4C)cc23)c1F [P-2153, Propane-1-sulfonic acid {2,4-difluoro-3-[5-(1-methyl-1H-imidazol-2-yl)-1H-pyrrolo[2,3-b]pyridine-3-carbonyl]-phenyl}-amide]
not listed: C-Raf
≤ 10 µM: all other assays above

CCCS(=O)(=O)Nc1ccc(F)c(C(=O)c2c[nH]c3ncc(O)cc23)c1F [P-2204, Propane-1-sulfonic acid [2,4-difluoro-3-(5-hydroxy-1H-pyrrolo[2,3-b]pyridine-3-carbonyl)-phenyl]-amide]
not listed: C-Raf
≤ 10 µM: all other assays above

CCCS(=O)(=O)Nc1ccc(F)c(C(=O)c2c[nH]c3ncc(-c4ccnc(F)c4)cc23)c1F [P-2192, Propane-1-sulfonic acid {2,4-difluoro-3-[5-(2-fluoro-pyridin-4-yl)-1H-pyrrolo[2,3-b]pyridine-3-carbonyl]-phenyl}-amide]
not listed: C-Raf
≤ 10 µM: all other assays above

CC(C)CS(=O)(=O)Nc1ccc(F)c(C(=O)c2c[nH]c3ncc(-c4ccc(F)cc4)cc23)c1F [P-2298, 2-Methyl-propane-1-sulfonic acid {2,4-difluoro-3-[5-(4-fluoro-phenyl)-1H-pyrrolo[2,3-b]pyridine-3-carbonyl]-phenyl}-amide]
not listed: C-Raf
≤ 10 µM: all other assays above

Cn1cc(-c2cnc3[nH]cc(C(=O)c4cc(NS(=O)(=O)c5ccc(C(F)(F)F)cc5)ccc4F)c3c2)cn1 [P-2104, N-{4-Fluoro-3-[5-(1-methyl-1H-pyrazol-4-yl)-1H-pyrrolo[2,3-b]pyridine-3-carbonyl]-phenyl}-4-trifluoromethyl-benzenesulfonamide]
not listed: C-Raf
≤ 10 µM: all other assays above

CCCS(=O)(=O)Nc1ccc(F)c(C(=O)c2c[nH]c3ncc(-c4cccc(NS(C)(=O)=O)c4)cc23)c1F [P-2169, Propane-1-sulfonic acid {2,4-difluoro-3-[5-(3-methanesulfonylamino-phenyl)-1H-pyrrolo[2,3-b]pyridine-3-carbonyl]-phenyl}-amide]
not listed: B-Raf | C-Raf
≤ 10 µM: all other assays above

O=C(c1cc(NS(=O)(=O)c2cccc(OC(F)(F)F)c2)ccc1F)c1c[nH]c2ncc(Cl)cc12 [P-2110, N-[3-(5-Chloro-1H-pyrrolo[2,3-b]pyridine-3-carbonyl)-4-fluoro-phenyl]-3-trifluoromethoxy-benzenesulfonamide]
not listed: Src | C-Raf
≤ 10 µM: all other assays above

CCCS(=O)(=O)Nc1cccc(C(=O)c2c[nH]c3ncc(C(=O)OCC)cc23)c1F [P-2406, 3-[2-Fluoro-3-(propane-1-sulfonylamino)-benzoyl]-1H-pyrrolo[2,3-b]pyridine-5-carboxylic acid ethyl ester]
not listed: Src | C-Raf
≤ 10 µM: all other assays above

O=C(c1c(F)ccc(NS(=O)(=O)CCC(F)(F)F)c1F)c1c[nH]c2ncc(-c3ccc(F)cc3)cc12 [P-2326, 3,3,3-Trifluoro-propane-1-sulfonic acid {2,4-difluoro-3-[5-(4-fluoro-phenyl)-1H-pyrrolo[2,3-b]pyridine-3-carbonyl]-phenyl}-amide]
not listed: C-Raf
≤ 10 µM: all other assays above
